# pKi: −log10 of the molar value.
# Target: T1, JNK1α1 (Homo sapiens, UniProt P45983)
# T1 construct: catalytic domain containing amino acids 1-364 and N-terminal hexahistidine tag; hexahistidine (His6) (N); made in house; host or cells: E. coli BL21 (DE3)
# Assay: Coupled spectrophotometric (PK/LDH) JNK1α1 assay: % inhibition and Ki determination
# Assay type: biochemical
# Conditions: JNK-1
# Procedure, shortened: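 Initial rates were taken from the absorbance decrease at 340 nm at 30° C. Ki was fitted with a tight-binding model over 11 concentrations (top 100 μM); single-point inhibition was tested at 1 or 10 μM.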
# T1 sequence (P45983 1-364): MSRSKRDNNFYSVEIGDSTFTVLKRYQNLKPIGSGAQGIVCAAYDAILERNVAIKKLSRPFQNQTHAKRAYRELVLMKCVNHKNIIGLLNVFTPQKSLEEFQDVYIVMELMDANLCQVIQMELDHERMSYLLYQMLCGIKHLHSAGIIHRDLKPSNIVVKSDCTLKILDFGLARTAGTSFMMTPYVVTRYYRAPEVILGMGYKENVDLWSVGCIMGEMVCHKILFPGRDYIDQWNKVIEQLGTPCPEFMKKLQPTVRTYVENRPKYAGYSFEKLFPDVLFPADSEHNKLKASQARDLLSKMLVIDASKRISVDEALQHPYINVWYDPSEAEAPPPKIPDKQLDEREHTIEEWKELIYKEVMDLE
row,SMILES,pKi
1,"CC(C)(CN1CCOCC1)NC(=O)c1cccc2cnc(N[C@H]3CC[C@H](O)CC3)nc12 [Example 105, N-(1,1-dimethyl-2-morpholin-4-ylethyl)-2-[(trans-4-hydroxycyclohexyl)amino]quinazoline-8-carboxamide]",6.15
2,"CS(=O)(=O)CCNC(=O)c1cccc2cnc(N[C@H]3CC[C@H](O)CC3)nc12 [Example 106, 2-[(trans-4-hydroxycyclohexyl)amino]-N-[2-(methylsulfonyl)ethyl]quinazoline-8-carboxamide]",6.65
3,"O=C(NCC1CCOC1)c1cccc2cnc(N[C@H]3CC[C@H](O)CC3)nc12 (stereo partly drawn) [Example 107, 2-[(trans-4-hydroxycyclohexyl)amino]-N-(tetrahydrofuran-3-ylmethyl)quinazoline-8-carboxamide]",6.60
4,"COCCNC(=O)c1cccc2cnc(N[C@H]3CC[C@H](O)CC3)nc12 [Example 109, 2-[(trans-4-hydroxycyclohexyl)amino]-N-(2-methoxyethyl)quinazoline-8-carboxamide]",6.17
5,"O=C(c1cccc2cnc(N[C@H]3CC[C@H](O)CC3)nc12)N1CCC(O)C1 (stereo partly drawn) [Example 112, 1-({2-[(trans-4-hydroxycyclohexyl)amino]quinazolin-8-yl}carbonyl)pyrrolidin-3-ol]",< 5.00
6,"O=C(NC1CCOCC1)c1cccc2cnc(N[C@H]3CC[C@H](O)CC3)nc12 [Example 113, 2-[(trans-4-hydroxycyclohexyl)amino]-N-(tetrahydro-2H-pyran-4-yl)quinazoline-8-carboxamide]",6.57
7,"CNC(=O)c1cccc2cnc(N[C@H]3CC[C@H](O)CC3)nc12 [Example 114, 2-[(trans-4-hydroxycyclohexyl)amino]-N-methylquinazoline-8-carboxamide]",5.81
8,"O=C(NC1CCCC1)c1cccc2cnc(N[C@H]3CC[C@H](O)CC3)nc12 [Example 115, N-cyclopentyl-2-[(trans-4-hydroxycyclohexyl)amino]quinazoline-8-carboxamide]",6.64
9,"O=C(NCCN1CCOCC1)c1cccc2cnc(N[C@H]3CC[C@H](O)CC3)nc12 [Example 116, 2-[(trans-4-hydroxycyclohexyl)amino]-N-(2-morpholin-4-ylethyl)quinazoline-8-carboxamide]",5.61
10,"O=C(NCC1CCOC1)c1cccc2cnc(N[C@H]3CC[C@H](O)CC3)nc12 (stereo partly drawn) [Example 117, 2-[(trans-4-hydroxycyclohexyl)amino]-N-(tetrahydrofuran-3-ylmethyl)quinazoline-8-carboxamide]",6.60
11,"CCNC(=O)c1cccc2cnc(N[C@H]3CC[C@H](O)CC3)nc12 [Example 118, N-ethyl-2-[(trans-4-hydroxycyclohexyl)amino]quinazoline-8-carboxamide]",6.65
12,"O=C(NC1CCS(=O)(=O)C1)c1cccc2cnc(N[C@H]3CC[C@H](O)CC3)nc12 (stereo partly drawn) [Example 119, N-(1,1-dioxidotetrahydro-3-thienyl)-2-[(trans-4-hydroxycyclohexyl)amino]quinazoline-8-carboxamide]",6.42
13,"C[C@H](CO)NC(=O)c1cccc2cnc(N[C@H]3CC[C@H](O)CC3)nc12 [Example 123, 2-[(trans-4-hydroxycyclohexyl)amino]-N-[(1R)-2-hydroxy-1-methylethyl]quinazoline-8-carboxamide]",6.20
14,"O=C(NCc1ccccc1)c1cccc2cnc(N[C@H]3CC[C@H](O)CC3)nc12 [Example 124, N-benzyl-2-[(trans-4-hydroxycyclohexyl)amino]quinazoline-8-carboxamide]",6.39
15,"O=C(Nc1nccc(O)n1)c1cccc2cnc(N[C@H]3CC[C@H](O)CC3)nc12 [Example 125, 2-[(trans-4-hydroxycyclohexyl)amino]-N-(4-hydroxypyrimidin-2-yl)quinazoline-8-carboxamide]",6.28
16,"CC(O)c1cccc(NC(=O)c2cccc3cnc(N[C@H]4CC[C@H](O)CC4)nc23)n1 (stereo partly drawn) [Example 126, 2-[(trans-4-hydroxycyclohexyl)amino]-N-[6-(1-hydroxyethyl)pyridin-2-yl]quinazoline-8-carboxamide]",6.42
17,"CN(C)CCNC(=O)c1cccc2cnc(N[C@H]3CC[C@H](O)CC3)nc12 [Example 127, N-[2-(dimethylamino)ethyl]-2-[(trans-4-hydroxycyclohexyl)amino]quinazoline-8-carboxamide]",5.46
18,"CC(C)(N)CNC(=O)c1cccc2cnc(N[C@H]3CC[C@H](O)CC3)nc12 [Example 128, N-(2-amino-2-methylpropyl)-2-[(trans-4-hydroxycyclohexyl)amino]quinazoline-8-carboxamide]",5.46
19,"CC(=O)N[C@H]1CC[C@H](Nc2ncc3cccc(C(=O)N[C@@H](C)CO)c3n2)CC1 [Example 133, 2-{[trans-4-(acetylamino)cyclohexyl]amino}-N-[(1S)-2-hydroxy-1-methylethyl]quinazoline-8-carboxamide]",6.68
20,"CC(=O)N[C@H]1CC[C@H](Nc2ncc3cccc(C(=O)NCC(C)(C)O)c3n2)CC1 [Example 135, 2-{[trans-4-(acetylamino)cyclohexyl]amino}-N-(2-hydroxy-2-methylpropyl)quinazoline-8-carboxamide]",6.52
21,"O[C@H]1CC[C@H](Nc2ncc3ccc(F)cc3n2)CC1 [Example 143, trans-4-[(7-fluoroquinazolin-2-yl)amino]cyclohexanol]",6.47
22,c1ccc2nc(NC3CCCCC3)ncc2c1 [Example 147],6.34
23,Fc1ccc2cnc(NC3CCCCC3)nc2c1 [Example 148],6.34
24,COc1cccc2cnc(NC3CCCCC3)nc12 [Example 149],6.31
25,COc1cccc2cnc(N[C@H]3CC[C@H](O)CC3)nc12 [Example 150],6.44
26,"O[C@H]1CC[C@H](Nc2ncc3ccccc3n2)CC1 [Example 151, trans-4-(quinazolin-2-ylamino)cyclohexanol]",6.36
27,"Oc1cccc2cnc(N[C@H]3CC[C@H](O)CC3)nc12 [Example 152, 2-[(trans-4-hydroxycyclohexyl)amino]quinazolin-8-ol]",6.38
28,"O[C@H]1CC[C@H](Nc2ncc3ccc(OCCN4CCOCC4)cc3n2)CC1 [Example 154, trans-4-{[7-(2-morpholin-4-ylethoxy)quinazolin-2-yl]amino}cyclohexanol]",6.39

# The next compounds have a higher pKi than those just listed; values first:
row,pKi,SMILES
1,6.73,"O[C@H]1CC[C@H](Nc2ncc3ccc(OCc4ccccn4)cc3n2)CC1 [Example 153, trans-4-{[7-(pyridin-2-ylmethoxy)quinazolin-2-yl]amino}cyclohexanol]"
2,6.75,"Oc1ccc2cnc(N[C@H]3CC[C@H](O)CC3)nc2c1 [Example 146, 2-[(trans-4-hydroxycyclohexyl)amino]quinazolin-7-ol]"
3,6.77,"CC(C)(O)CNC(=O)c1cccc2cnc(N[C@H]3CC[C@H](O)CC3)nc12 [Example 121, 2-[(trans-4-hydroxycyclohexyl)amino]-N-(2-hydroxy-2-methylpropyl)quinazoline-8-carboxamide]"
4,6.83,"C[C@@H](O)CNC(=O)c1cccc2cnc(N[C@H]3CC[C@H](O)CC3)nc12 [Example 120, 2-[(trans-4-hydroxycyclohexyl)amino]-N-[(2R)-2-hydroxypropyl]quinazoline-8-carboxamide]"
5,6.85,"O=C(NC1CCOC1)c1cccc2cnc(N[C@H]3CC[C@H](O)CC3)nc12 (stereo partly drawn) [Example 111, 2-[(trans-4-hydroxycyclohexyl)amino]-N-(tetrahydrofuran-3-yl)quinazoline-8-carboxamide]"
6,6.85,"CC(C)(O)CNC(=O)c1cccc2cnc(N[C@H]3CC[C@H](NS(C)(=O)=O)CC3)nc12 [Example 130, N-(2-hydroxy-2-methylpropyl)-2-({trans-4-[(methylsulfonyl)amino]cyclohexyl}amino)quinazoline-8-carboxamide]"
7,6.89,"O=C(NCC1(O)CCC1)c1cccc2cnc(N[C@H]3CC[C@H](O)CC3)nc12 [Example 129, N-[(1-hydroxycyclobutyl)methyl]-2-[(trans-4-hydroxycyclohexyl)amino]quinazoline-8-carboxamide]"
8,6.90,"CC(=O)N[C@H]1CC[C@H](Nc2ncc3cccc(C(=O)NC(C)(C)CO)c3n2)CC1 [Example 134, 2-{[trans-4-(acetylamino)cyclohexyl]amino}-N-(2-hydroxy-1,1-dimethylethyl)quinazoline-8-carboxamide]"
9,6.90,"O[C@H]1CC[C@H](Nc2ncc3ccc(OC4CCOC4)cc3n2)CC1 (stereo partly drawn) [Example 144, trans-4-{[7-(tetrahydrofuran-3-yloxy)quinazolin-2-yl]amino}cyclohexanol]"
10,6.90,"O=C(NCCO)c1cccc2cnc(N[C@H]3CC[C@H](O)CC3)nc12 [Example 108, 2-[(trans-4-hydroxycyclohexyl)amino]-N-(2-hydroxyethyl)quinazoline-8-carboxamide]"
11,6.91,"COc1ccc2cnc(N[C@H]3CC[C@H](O)CC3)nc2c1 [Example 145, trans-4-[(7-methoxyquinazolin-2-yl)amino]cyclohexanol]"
12,7.07,"O=C(Nc1ccccn1)c1cccc2cnc(N[C@H]3CC[C@H](O)CC3)nc12 [Example 110, 2-[(trans-4-hydroxycyclohexyl)amino]-N-pyridin-2-ylquinazoline-8-carboxamide]"
13,7.09,"C[C@@H](CO)NC(=O)c1cccc2cnc(N[C@H]3CC[C@H](O)CC3)nc12 [Example 122, 2-[(trans-4-hydroxycyclohexyl)amino]-N-[(1S)-2-hydroxy-1-methylethyl]quinazoline-8-carboxamide]"
14,7.11,"CC(C)(CO)NC(=O)c1cccc2cnc(N[C@H]3CC[C@H](NS(C)(=O)=O)CC3)nc12 [Example 132, N-(2-hydroxy-1,1-dimethylethyl)-2-({trans-4-[(methylsulfonyl)amino]cyclohexyl}amino)quinazoline-8-carboxamide]"
15,7.11,"C[C@@H](CO)NC(=O)c1cccc2cnc(N[C@H]3CC[C@H](NS(C)(=O)=O)CC3)nc12 [Example 131, N-[(1S)-2-hydroxy-1-methylethyl]-2-({trans-4-[(methylsulfonyl)amino]cyclohexyl}amino)quinazoline-8-carboxamide]"
